Assay results: patent publication US11331369B2, “Endoparasitic depsipeptides” (Zoetis Services LLC, priority 2017, dated 2022)

How the values were obtained:
[1] = system: microfilariae of Dirofilaria immitis; experiment: Dirofilaria immitis, Microfilaria (DiMF) In vitro Assay; type: cell-based; details: 72 h, read-out: DiMF Minimum Effective Dose (MED), approximately 72 hours incubation, microfilariae assessed for survival or paralysis
[2] = system: 4th stage larvae (L4) of Dirofilaria immitis; experiment: Dirofilaria immitis, L4 Stage (DiL4) In Vitro Assay; type: cell-based; details: Dirofilaria immitis, 72 h, read-out: DiL4 Minimum Effective Dose (MED), approximately 72 hours incubation; L4 larvae assessed for survival or paralysis

**Q.** With `CC(C)C[C@H]1C(=O)O[C@H](Cc2ccc(Cn3cc(Cl)cn3)cc2)C(=O)N(C)[C@@H](CC(C)C)C(=O)O[C@H](C)C(=O)N(C)[C@@H](CC(C)C)C(=O)O[C@H](Cc2ccccc2)C(=O)N(C)[C@@H](CC(C)C)C(=O)O[C@H](C)C(=O)N1C` [Example 2-25, (3S,6R,9S,12R,15S,18R,21S,24R)-6-benzyl-18-(4-((4-chloro-1H-pyrazol-1-yl)methyl)benzyl)-3,9,15,21-tetraisobutyl-4,10,12,16,22,24-hexamethyl-1,7,13,19-tetraoxa-4,10,16,22-tetraazacyclotetracosan-2,5,8,11,14,17,20,23-octaone] as the compound, how does the minimal effective concentration [1] read?
**A.** 0.001 to 0.01 µM

**Q.** And the minimal effective concentration [2]?
**A.** 0.0001 to 0.001 µM

**Q.** Which results are given for `CC(C)C[C@H]1C(=O)O[C@H](Cc2ccc(Cn3cc(I)cn3)cc2)C(=O)N(C)[C@@H](CC(C)C)C(=O)O[C@H](C)C(=O)N(C)[C@@H](CC(C)C)C(=O)O[C@H](Cc2ccccc2)C(=O)N(C)[C@@H](CC(C)C)C(=O)O[C@H](C)C(=O)N1C` [Example 2-41, (3S,6R,9S,12R,15S,18R,21S,24R)-6-benzyl-18-(4-((4-iodo-1H-pyrazol-1-yl)methyl)benzyl)-3,9,15,21-tetraisobutyl-4,10,12,16,22,24-hexamethyl-1,7,13,19-tetraoxa-4,10,16,22-tetraazacyclotetracosan-2,5,8,11,14,17,20,23-octaone]?
**A.** minimal effective concentration [1]: 0.001 to 0.01 µM; minimal effective concentration [2]: 0.0001 to 0.001 µM

**Q.** Which minimal effective concentration [1] does the source give for `CC(C)C[C@H]1C(=O)O[C@H](Cc2ccc(Cn3nc(C(F)(F)F)cc3C(F)(F)F)cc2)C(=O)N(C)[C@@H](CC(C)C)C(=O)O[C@H](C)C(=O)N(C)[C@@H](CC(C)C)C(=O)O[C@H](Cc2ccccc2)C(=O)N(C)[C@@H](CC(C)C)C(=O)O[C@H](C)C(=O)N1C` [Example 2-55, (3S,6R,9S,12R,15S,18R,21S,24R)-6-benzyl-18-(4-((3,5-bis(trifluoromethyl)-1H-pyrazol-1-yl)methyl)benzyl)-3,9,15,21-tetraisobutyl-4,10,12,16,22,24-hexamethyl-1,7,13,19-tetraoxa-4,10,16,22-tetraazacyclotetracosan-2,5,8,11,14,17,20,23-octaone] here?
**A.** 0.001 to 0.01 µM

**Q.** What about the minimal effective concentration [2] of the same compound?
**A.** 0.0001 to 0.001 µM

**Q.** Which minimal effective concentration [1] does the source give for `CC(C)C[C@H]1C(=O)O[C@H](Cc2ccc(Cn3nc(C#N)cc3C#N)cc2)C(=O)N(C)[C@@H](CC(C)C)C(=O)O[C@H](C)C(=O)N(C)[C@@H](CC(C)C)C(=O)O[C@H](Cc2ccccc2)C(=O)N(C)[C@@H](CC(C)C)C(=O)O[C@H](C)C(=O)N1C` [Example 2-62, 1-(4-(((2R,5S,8R,11S,14R,17S,20R,23S)-14-benzyl-5,11,17,23-tetraisobutyl-4,8,10,16,20,22-hexamethyl-3,6,9,12,15,18,21,24-octaoxo-1,7,13,19-tetraoxa-4,10,16,22-tetraazacyclotetracosan-2-yl)methyl)benzyl)-1H-pyrazole-3,5-dicarbonitrile] here?
**A.** 0.001 to 0.01 µM

**Q.** And the minimal effective concentration [2]?
**A.** 0.0001 to 0.001 µM

**Q.** Which minimal effective concentration [1] does the source give for `CC(C)C[C@H]1C(=O)O[C@H](Cc2ccc(Cn3cc(C#Cc4ccccc4)cn3)cc2)C(=O)N(C)[C@@H](CC(C)C)C(=O)O[C@H](C)C(=O)N(C)[C@@H](CC(C)C)C(=O)O[C@H](Cc2ccccc2)C(=O)N(C)[C@@H](CC(C)C)C(=O)O[C@H](C)C(=O)N1C` [Example 2-64, (3S,6R,9S,12R,15S,18R,21S,24R)-6-benzyl-3,9,15,21-tetraisobutyl-4,10,12,16,22,24-hexamethyl-18-(4-((4-(phenylethynyl)-1H-pyrazol-1-yl)methyl)benzyl)-1,7,13,19-tetraoxa-4,10,16,22-tetraazacyclotetracosan-2,5,8,11,14,17,20,23-octaone] here?
**A.** 0.01 to 0.1 µM

**Q.** What about the minimal effective concentration [2] of the same compound?
**A.** 0.0001 to 0.001 µM

**Q.** Which minimal effective concentration [1] does the source give for `CC#Cc1cnn(Cc2ccc(C[C@H]3OC(=O)[C@H](CC(C)C)N(C)C(=O)[C@@H](C)OC(=O)[C@H](CC(C)C)N(C)C(=O)[C@@H](Cc4ccccc4)OC(=O)[C@H](CC(C)C)N(C)C(=O)[C@@H](C)OC(=O)[C@H](CC(C)C)N(C)C3=O)cc2)c1` [Example 2-76, (3S,6R,9S,12R,15S,18R,21S,24R)-6-benzyl-3,9,15,21-tetraisobutyl-4,10,12,16,22,24-hexamethyl-18-(4-((4-(prop-1-yn-1-yl)-1H-pyrazol-1-yl)methyl)benzyl)-1,7,13,19-tetraoxa-4,10,16,22-tetraazacyclotetracosan-2,5,8,11,14,17,20,23-octaone] here?
**A.** 0.001 to 0.01 µM

**Q.** What about the minimal effective concentration [2] of the same compound?
**A.** 0.0001 to 0.001 µM

**Q.** Which minimal effective concentration [1] does the source give for `CCC#Cc1cnn(Cc2ccc(C[C@H]3OC(=O)[C@H](CC(C)C)N(C)C(=O)[C@@H](C)OC(=O)[C@H](CC(C)C)N(C)C(=O)[C@@H](Cc4ccccc4)OC(=O)[C@H](CC(C)C)N(C)C(=O)[C@@H](C)OC(=O)[C@H](CC(C)C)N(C)C3=O)cc2)c1` [Example 2-77, (3S,6R,9S,12R,15S,18R,21S,24R)-6-benzyl-18-(4-((4-(but-1-yn-1-yl)-1H-pyrazol-1-yl)methyl)benzyl)-3,9,15,21-tetraisobutyl-4,10,12,16,22,24-hexamethyl-1,7,13,19-tetraoxa-4,10,16,22-tetraazacyclotetracosan-2,5,8,11,14,17,20,23-octaone] here?
**A.** 0.001 to 0.01 µM

**Q.** And the minimal effective concentration [2]?
**A.** 0.0001 to 0.001 µM

**Q.** What does the source list for `CC(C)C[C@H]1C(=O)O[C@H](Cc2cccc(Cn3cc(Br)cn3)c2)C(=O)N(C)[C@@H](CC(C)C)C(=O)O[C@H](C)C(=O)N(C)[C@@H](CC(C)C)C(=O)O[C@H](Cc2cccc(Cn3cc(Br)cn3)c2)C(=O)N(C)[C@@H](CC(C)C)C(=O)O[C@H](C)C(=O)N1C` [Example 4-2, (3S,6R,9S,12R,15S,18R,21S,24R)-6,18-bis(3-((4-bromo-1H-pyrazol-1-yl)methyl)benzyl)-3,9,15,21-tetraisobutyl-4,10,12,16,22,24-hexamethyl-1,7,13,19-tetraoxa-4,10,16,22-tetraazacyclotetracosan-2,5,8,11,14,17,20,23-octaone]?
**A.** minimal effective concentration [1]: 0.001 to 0.01 µM; minimal effective concentration [2]: 0.0001 to 0.001 µM

**Q.** How did the minimal effective concentration [1] turn out when `CC(C)C[C@H]1C(=O)O[C@H](Cc2cccc(Cn3ccnc3Br)c2)C(=O)N(C)[C@@H](CC(C)C)C(=O)O[C@H](C)C(=O)N(C)[C@@H](CC(C)C)C(=O)O[C@H](Cc2ccc(Cn3ccnc3Br)cc2)C(=O)N(C)[C@@H](CC(C)C)C(=O)O[C@H](C)C(=O)N1C` [Example 7-3, (3S,6R,9S,12R,15S,18R,21S,24R)-6-[[3-[(2-bromoimidazol-1-yl)methyl]phenyl]methyl]-18-[[4-[(2-bromoimidazol-1-yl)methyl]phenyl]methyl]-3,9,15,21-tetraisobutyl-4,10,12,16,22,24-hexamethyl-1,7,13,19-tetraoxa-4,10,16,22-tetrazacyclotetracosane-2,5,8,11,14,17,20,23-octaone] was run?
**A.** 0.001 to 0.01 µM

**Q.** And the minimal effective concentration [2]?
**A.** 0.0001 to 0.001 µM

**Q.** What does the source list for `CC(C)C[C@H]1C(=O)O[C@H](Cc2ccc(Cn3ccnc3C(F)(F)F)cc2)C(=O)N(C)[C@@H](CC(C)C)C(=O)O[C@H](C)C(=O)N(C)[C@@H](CC(C)C)C(=O)O[C@H](Cc2ccccc2)C(=O)N(C)[C@@H](CC(C)C)C(=O)O[C@H](C)C(=O)N1C` [Example 8-12, (3S,6R,9S,12R,15S,18R,21S,24R)-6-benzyl-3,9,15,21-tetraisobutyl-4,10,12,16,22,24-hexamethyl-18-(4-((2-(trifluoromethyl)-1H-imidazol-1-yl)methyl)benzyl)-1,7,13,19-tetraoxa-4,10,16,22-tetraazacyclotetracosan-2,5,8,11,14,17,20,23-octaone]?
**A.** minimal effective concentration [1]: 0.001 to 0.01 µM; minimal effective concentration [2]: 0.0001 to 0.001 µM

**Q.** `CC(C)C[C@H]1C(=O)O[C@H](Cc2ccc(Cn3ccc(C#N)c3)cc2)C(=O)N(C)[C@@H](CC(C)C)C(=O)O[C@H](C)C(=O)N(C)[C@@H](CC(C)C)C(=O)O[C@H](Cc2ccc(Cn3ccc(C#N)c3)cc2)C(=O)N(C)[C@@H](CC(C)C)C(=O)O[C@H](C)C(=O)N1C` [Example 9-25, 1-[[4-[[(2R,5S,8R,11S,14R,17S,20R,23S)-14-[[4-[(3-cyanopyrrol-1-yl)methyl]phenyl]methyl]-5,11,17,23-tetraisobutyl-4,8,10,16,20,22-hexamethyl-3,6,9,12,15,18,21,24-octaoxo-1,7,13,19-tetraoxa-4,10,16,22-tetrazacyclotetracos-2-yl]methyl]phenyl]methyl]pyrrole-3-carbonitrile] was tested. Which minimal effective concentration [1] did it give?
**A.** 0.001 to 0.01 µM

**Q.** And the minimal effective concentration [2]?
**A.** 0.0001 to 0.001 µM

**Q.** What does the source list for `CC(C)C[C@H]1C(=O)O[C@H](Cc2ccc(Cn3ncnc3-c3ccc(Cl)cc3)cc2)C(=O)N(C)[C@@H](CC(C)C)C(=O)O[C@H](C)C(=O)N(C)[C@@H](CC(C)C)C(=O)O[C@H](Cc2ccc(Cn3ncnc3-c3ccc(Cl)cc3)cc2)C(=O)N(C)[C@@H](CC(C)C)C(=O)O[C@H](C)C(=O)N1C` [Example 9-58, (3S,6R,9S,12R,15S,18R,21S,24R)-6,18-bis(4-((5-(4-chlorophenyl)-1H-1,2,4-triazol-1-yl)methyl)benzyl)-3,9,15,21-tetraisobutyl-4,10,12,16,22,24-hexamethyl-1,7,13,19-tetraoxa-4,10,16,22-tetraazacyclotetracosan-2,5,8,11,14,17,20,23-octaone]?
**A.** minimal effective concentration [1]: 0.01 to 0.1 µM; minimal effective concentration [2]: 0.001 to 0.01 µM

**Q.** Which results are given for `CC(C)C[C@H]1C(=O)O[C@H](Cc2ccc(CN3C(=O)CSc4cccnc43)cc2)C(=O)N(C)[C@@H](CC(C)C)C(=O)O[C@H](C)C(=O)N(C)[C@@H](CC(C)C)C(=O)O[C@H](Cc2ccc(CN3C(=O)CSc4cccnc43)cc2)C(=O)N(C)[C@@H](CC(C)C)C(=O)O[C@H](C)C(=O)N1C` [Example 9-61, (3S,6R,9S,12R,15S,18R,21S,24R)-3,9,15,21-tetraisobutyl-4,6,10,16,18,22-hexamethyl-12,24-bis[[4-[(3-oxopyrido[3,2-b][1,4]thiazin-4-yl)methyl]phenyl]methyl]-1,7,13,19-tetraoxa-4,10,16,22-tetrazacyclotetracosane-2,5,8,11,14,17,20,23-octaone]?
**A.** minimal effective concentration [1]: 0.01 to 0.1 µM; minimal effective concentration [2]: 0.001 to 0.01 µM
